Like-named read-outs stand apart in the source and are kept apart here.
Tests used:
BaF3 CD74-TRKA-G667C = assay: BaF3 cell proliferation, CCK-8 assay; details: Mus musculus, BaF3, 72 h, read-out: IC50 (nM ± SD) xDFG CD74-TRKA-G667C
Procedure: (§1) Murine BaF3 cells were purchased from JRCB cell bank. The BaF3 cell lines, which stably express natively-fused TRKA/B/C or various point mutants, were self-established by following previously described procedures. Briefly, NTRK genes were totally synthesized and cloned into pCDNA3.1(+) vectors (Invitrogen, Carlsbad, CA, USA). […] Stable strains were established by selection of cells 2 weeks post-transfection with 800 μg/mL G418 (Merck, Whitehouse Station, NJ) and further selection after the withdrawal of interleukin-3 (IL-3, R&D) for 2 weeks. All of BaF3 stable cell lines were verified by DNA sequencing, protein expression and anti-proliferation activity against positive drugs. […] All cells were grown at 37 °C in a humidified 5% CO2 atmosphere.
(§2) Cells were placed in 96-well plates (5000~8000/well) in complete medium. […] IC50 values were calculated by concentration-response curve fitting using GraphPad Prism 5.0 software. Each IC50 value is expressed as mean ± SD.

BaF3 ETV6-TRKB-F633L = assay: BaF3 cell proliferation, CCK-8 assay; details: Mus musculus, BaF3, 72 h, read-out: IC50 (nM ± SD) Gatekeeper ETV6-TRKB-F633L
Procedure: as §1, §2

BaF3 ETV6-TRKB-G709C = assay: BaF3 cell proliferation, CCK-8 assay; details: Mus musculus, BaF3, 72 h, read-out: IC50 (nM ± SD) xDFG ETV6-TRKB-G709C
Procedure: as §1, §2

BaF3 QKI-TRKB = assay: BaF3 cell proliferation, CCK-8 assay; details: Mus musculus, BaF3, 72 h, read-out: IC50 (nM ± SD) WT QKI-TRKB
Procedure: as §1, §2

BaF3 EML4-TRKC = assay: BaF3 cell proliferation, CCK-8 assay; details: Mus musculus, BaF3, 72 h, read-out: IC50 (nM ± SD) WT EML4-TRKC
Procedure: as §1, §2

BaF3 ETV6-TRKB-G639R = assay: BaF3 cell proliferation, CCK-8 assay; details: Mus musculus, BaF3, 72 h, read-out: IC50 (nM ± SD) Solvent Front ETV6-TRKB-G639R
Procedure: as §1, §2

Parental BaF3 (+IL3) = assay: BaF3 cell proliferation, CCK-8 assay; details: Mus musculus, BaF3, 72 h, read-out: IC50 (nM ± SD) Parental BaF3 (+IL3)
Procedure: as §1, §2

BaF3 ETV6-TRKC-G623R = assay: BaF3 cell proliferation, CCK-8 assay; details: Mus musculus, BaF3, 72 h, read-out: IC50 (nM ± SD) Solvent Front ETV6-TRKC-G623R
Procedure: as §1, §2

BaF3 CD74-TRKA-F589L = assay: BaF3 cell proliferation, CCK-8 assay; details: Mus musculus, BaF3, 72 h, read-out: IC50 (nM ± SD) Gatekeeper CD74-TRKA-F589L
Procedure: as §1, §2

BaF3 MPRIP-TRKA = assay: BaF3 cell proliferation, CCK-8 assay; details: read-out: IC50 (nM ± SD) WT MPRIP-TRKA
Procedure: as §1, §2

BaF3 ETV6-TRKB = assay: BaF3 cell proliferation, CCK-8 assay; details: Mus musculus, BaF3, 72 h, read-out: IC50 (nM ± SD) WT ETV6-TRKB
Procedure: as §1, §2

BaF3 ETV6-TRKC = assay: BaF3 cell proliferation, CCK-8 assay; details: Mus musculus, BaF3, 72 h, read-out: IC50 (nM ± SD) WT ETV6-TRKC
Procedure: as §1, §2

BaF3 CD74-TRKA = assay: BaF3 cell proliferation, CCK-8 assay; details: Mus musculus, BaF3, 72 h, read-out: IC50 (nM ± SD) WT CD74-TRKA
Procedure: as §1, §2

BaF3 ETV6-TRKC-G696C = assay: BaF3 cell proliferation, CCK-8 assay; details: Mus musculus, BaF3, 72 h, read-out: IC50 (nM ± SD) xDFG ETV6-TRKC-G696C
Procedure: as §1, §2

BaF3 ETV6-TRKC-F617L = assay: BaF3 cell proliferation, CCK-8 assay; details: Mus musculus, BaF3, 72 h, read-out: IC50 (nM ± SD) Gatekeeper ETV6-TRKC-F617L
Procedure: as §1, §2

[1] = tested on: BaF3-CD74-TRKA-G667C cells; assay: Apoptosis by flow cytometry (Annexin V / 7-AAD); format: cell-based, Murine; details: even at a concentration of 50 nM
Procedure: For analysis of the cell cycle, cells were harvested and washed twice with PBS after treatment for 24 h with indicated drugs or DMSO. […] The cells were then analyzed on a Guava easyCyte flow cytometer (Merck, Whitehouse Station, NJ, USA). For analysis of cell apoptosis, cells were harvested and washed twice with ice-cold PBS after treatment for 48 h with indicated drugs or DMSO. […] Finally, 400 μL of a 1 × BD binding buffer solution was replenished. The cells were then analyzed on a Guava easyCyte flow cytometer (Merck, Whitehouse Station, NJ, USA).

[2] = tested on: BaF3 cells with gatekeeper mutations (TRKA^F589L, TRKB^F663L, TRKC^F617L); assay: BaF3 cell proliferation, summary over gatekeeper lines; details: Mus musculus, BaF3, read-out: IC50 in cells with gatekeeper mutations
Procedure: as §1, §2

BaF3 CD74-TRKA-G595R = assay: BaF3 cell proliferation, CCK-8 assay; details: Mus musculus, BaF3, 72 h, read-out: IC50 (nM ± SD) Solvent Front CD74-TRKA-G595R
Procedure: as §1, §2

[3] = tested on: TRKs-xDGF mutants TRKA-G667C, TRKB-G709C and TRKC-G696C in stable BaF3 models; assay: Western blot of xDFG mutant TRK signal pathway (Figure S2); format: cell-based, Murine; details: even at 200 nM, 6 h
Procedure: Cells were treated with various concentrations of each tested compound for a designated time. Then cells were lysed using 1 × SDS sample lysis buffer (CST recommended) with protease and phosphatase inhibitors. […] The films were blocked with 5% fat-free milk in TBS solution containing 0.5% Tween-20 for 4 h at room temperature, then incubated with the corresponding primary antibody (1:1000–1:200) overnight at 4 °C. After washing with TBST, HRP-conjugated secondary antibody was incubated for 2 h. The protein signals were visualized by ECL Western Blotting Detection Kit (Thermo Scientific, Waltham, MA, USA), and detected with Amersham Imager 600 system (GE, Boston, MA, USA).

[4] = tested on: BaF3 cells with solvent front mutations (TRKA^G595R, TRKB^G639R, TRKC^G623R); assay: BaF3 cell proliferation, summary over solvent front lines; details: Mus musculus, BaF3, read-out: IC50 range in cells with solvent front mutations
Procedure: as §1, §2

TRKA^G667C mutant = assay: Multi-target kinase inhibitors in BaF3 cell proliferation assays (Table S3); format: cell-based, Murine
[5] = tested on: wild-type TRKA/B/C or solvent-front mutations; assay: as above; format: cell-based, Murine

SMILES	IC50 (BaF3 CD74-TRKA-G667C) [nM]	IC50 (BaF3 ETV6-TRKB-F633L) [nM]	IC50 (BaF3 ETV6-TRKB-G709C) [nM]	IC50 (BaF3 QKI-TRKB) [nM]	IC50 (BaF3 EML4-TRKC) [nM]	IC50 (BaF3 ETV6-TRKB-G639R) [nM]	IC50 (Parental BaF3 (+IL3)) [nM]	IC50 (BaF3 ETV6-TRKC-G623R) [nM]	IC50 (BaF3 CD74-TRKA-F589L) [nM]	IC50 (BaF3 MPRIP-TRKA; Mus musculus, BaF3, 72 h) [nM]	IC50 (BaF3 ETV6-TRKB) [nM]	IC50 (BaF3 ETV6-TRKC) [nM]	IC50 (BaF3 CD74-TRKA) [nM]	IC50 (BaF3 ETV6-TRKC-G696C) [nM]	IC50 (BaF3 ETV6-TRKC-F617L) [nM]	effect on cell cycle or apoptosis [1]	IC50 (BaF3 CD74-TRKA-G595R) [nM]	inhibition of the activation of TRKs-xDGF mutants [3]	activity against TRKA^G667C mutant (TRKA^G667C mutant)	activity against wild-type TRKA/B/C or solvent-front mutations [5]	also measured
CN1CCN(c2ccc(C(=O)Nc3n[nH]c4ccc(Cc5cc(F)cc(F)c5)cc34)c(NC3CCOCC3)c2)CC1 [Entrectinib]	33.2 ± 3.2	13 ± 3.6	285 ± 92.4	4.8 ± 1.6	5.2 ± 1.6	529 ± 130	2340 ± 202	617 ± 69.8	2.1 ± 0.3	1.6 ± 0.4	8 ± 3.1	7.8 ± 4.2	4.4 ± 1	124 ± 60.4	4.6 ± 2.8						
O=C(Nc1cnn2ccc(N3CCC[C@@H]3c3cc(F)ccc3F)nc12)N1CC[C@H](O)C1 [Larotrectinib]	313 ± 48.5	1400 ± 214	1630 ± 821	11.4 ± 4.2	21.7 ± 6.9	1900 ± 778	> 10000	1270 ± 165	423 ± 92.6	4.8 ± 1.2	24 ± 4.2	11.2 ± 2.8	8 ± 0.8	769 ± 325	513 ± 156	little effect	1110 ± 251	limited inhibition			IC50 [2]: > 423 nM
C[C@H]1CNC(=O)c2cnn3ccc(nc23)N[C@H](C)c2cc(F)ccc2O1 [Repotrectinib]		4.9 ± 2.2	89.7 ± 38.8	0.8 ± 0.7	2.7 ± 1.6		906 ± 69	14.6 ± 4.7			2.3 ± 0.5	2.1 ± 0.9		42.9 ± 33.6	2.1 ± 1.1						IC50 (BaF3 MPRIP-TRKA; CCK-8, 72 h): 1.1 ± 0.2 nM
C[C@@H]1CCc2ncc(F)cc2[C@H]2CCCN2c2ccn3ncc(c3n2)C(=O)N1 [Selitrectinib]	66.3 ± 13	55.8 ± 10.8	168 ± 73	1.5 ± 0.4	2.1 ± 0.2	11.4 ± 2.2	> 10000	9.6 ± 1.2	17.3 ± 2.2	1.1 ± 0.4	4.9 ± 1.4	1.7 ± 1.1	2.5 ± 0.2	98.4 ± 55	20.8 ± 7.9	little effect	13.6 ± 3.3	limited inhibition			IC50 [4]: 9.4 to 33.7 nM
COc1cc2nccc(Oc3ccc(NC(=O)C4(C(=O)Nc5ccc(F)cc5)CC4)cc3)c2cc1OC [cabozantinib]																			good activity	weak activity	
Cc1ccc(C(=O)Nc2ccc(CN3CCN(C)CC3)c(C(F)(F)F)c2)cc1C#Cc1cnc2cccnn12 [ponatinib]																			good activity	weak activity	

Source: publication PMC9570838, “JND4135, a New Type II TRK Inhibitor, Overcomes TRK xDFG and Other Mutation Resistance In Vitro and In Vivo” (Molecules, 2022)
